The record followed here is US7297712B2, “Cationic amphiphiles for intracellular delivery of therapeutic molecules and its composition, process and method of treatment” (Council of Scientific and Industrial Research, priority 2002, dated 2007).

The subject of one assay is COS-1 cells. Description: Cell transfection, β-galactosidase reporter gene activity. The class given is cell-based. Conditions: pCMV β-gal plasmid 0.15 μg, lipid:DNA charge ratios 0.1:1 to 9:1, compared with DMRIE, FIG. 1. Here is the method:
Similar examples of plasmid include PGL-2 and PGL-3 of Promega and others.
Cell Transfection. COS-1 cells were seeded at a density of 15,000 cells/well in a 96-well plate eighteen hours before the transfection. 0.15 μg of plasmid DNA was complexed with varying amount of lipid (0.05-4.3 nmoles) in 13 μl of plain DMEM medium for 30 min. The charge ratios were varied from 0.1:1 to 9:1 (+/−) over this range of the lipid. The complex was diluted to 100 μl with plain DMEM and added to the wells. After 3 h of incubation, 100 μl of DMEM with 10% FCS was added to the cells. The medium was changed to 10% complete medium after 24 h and the reporter gene activity was estimated after 48 h. The cells were washed twice with PBS and lysed in 50 μl of lysis buffer (0.25 M Tris.HCl, pH 8.0 and 0.5% NP40). Care was taken to ensure complete lysis. The β-galactosidase activity per well was estimated by adding 50 μl of 2× substrate solution (1.33 mg/ml of ONPG, 0.2 M sodium phosphate, pH 7.15 and 2 mM magnesium chloride) to the lysate in a 96-well plate. Absorption at 405 nm was converted to β-galactosidase units by using calibration curve constructed with pure commercial β-galactosidase enzyme. The values of β-galactosidase units in replicate plates assayed on the same day varied by less than 30%. […]
`CCCCCCCCCCCCCC[N+]1(CCCCCCCCCCCCCC)CC(O)C(O)C1` (stereo not drawn) [lipid 2, N,N-di-n-tetradecyl-3,4-dihydroxy pyrrolidinium chloride]: the “in vitro transfection efficiency” value was “comparable to or better than that of DMRIE”.

For a further assay, the system named is EtBr:pCMV β-gal complex (DNA). Description: Lipid:DNA interactions assay (ethidium bromide exclusion fluorescence). The class given is binding. Conditions: titration of EtBr:DNA complex with lipid, TE buffer pH 8.0, FIG. 2. The text has this:
Lipid:DNA Interactions Assay. Intercalation-induced fluorescence increase and competition with cationic lipids to bind to DNA has made Ethidium Bromide (EtBr) an excellent tool to study cationic lipid-DNA interactions. To assess the representative lipid:DNA interactions for the cationic lipids of the present invention, we have titrated the EtBr:pCMV β-gal complex with increasing amounts of cationic lipids 1-5.
The extent of Et.Br binding to the DNA was monitored by the changes in the fluorescence. EtBr fluorescence was monitored in Hitachi 4500 fluorimeter by setting the excitation wavelength at 518 nm and emission wavelength at 585 nm. To one ml of TE buffer (pH 8.0), 0.78 nmoles of DNA and 2.5 nmoles of EtBr were added. The change in fluorescence was monitored after adding small volumes of lipids 1-5 to the EtBr:DNA complex. Arbitrary fluorescence values were recorded after allowing sufficient time for equilibration. […] Percent fluorescence was calculated considering the fluorescence value in the absence of lipid as 100.
Regarding `CCCCCCCCCCCC[N+]1(CCCCCCCCCCCC)CC(O)C(O)C1` (stereo not drawn) [lipid 1, N,N-di-n-dodecyl-3,4-dihydroxy pyrrolidinium chloride], the “lipid:DNA interaction (ability to exclude ethidium bromide from DNA)” value (shortened to “lipid:DNA interaction”) is recorded as “interact poorly with DNA”. `CCCCCCCCCCCCCC[N+]1(CCCCCCCCCCCCCC)CC(O)C(O)C1` (stereo not drawn) [lipid 2, N,N-di-n-tetradecyl-3,4-dihydroxy pyrrolidinium chloride]: the “lipid:DNA interaction” value is given as “interact with DNA equally well up to lipid:DNA ratio of 1.25 or so”.

`CCCCCCCCCCCCCCCC[N+]1(CCCCCCCCCCCCCCCC)CC(O)C(O)C1` (stereo not drawn) [lipid 3, N,N-di-n-hexadecyl-3,4-dihydroxy pyrrolidinium chloride]: the “lipid:DNA interaction” value is “interact with DNA equally well up to lipid:DNA ratio of 1.25 or so”.

Turning to `CCCCCCCCCCCCCCCCCC[N+]1(CCCCCCCCCCCCCCCCCC)CC(O)C(O)C1` (stereo not drawn) [lipid 4, N,N-di-n-octadecyl-3,4-dihydroxy pyrrolidinium chloride], the “lipid:DNA interaction” value is given as “interact poorly with DNA”. The same measure, in the same setting: to `CCCCCCCC/C=C\CCCCCCCC[N+]1(CCCCCCCCCCCCCCCCCC)CC(O)C(O)C1` (stereo not drawn) [lipid 5, N-n-octadecyl-N-oleyl-3,4 dihydroxy pyrrolidinium chloride] belongs “interact poorly with DNA”.
